Converted amounts (≈) assume the structure as drawn.
Assays:
[1] = for solubility in FaSSIF (in words): fasted-state simulated intestinal fluid; for solubility at pH 2.0 (in words): pH 2 (HCl) buffer
[2] = Single-dose pharmacokinetics in FVB mice (oral gavage, IV); conditions: for Brain exposure (AUClast) ranking: single oral dose, FVB mice
[3] = test system: MDCK-MDR^1 cells (P-glycoprotein); assay: Bidirectional MDCK-MDR1 cell permeability; format: in vitro ADME, canine
Experimental: MDCK-MDR^1 cells were grown to confluence for 5-10 days on 1-μm filters in 24-well plates {Hilgers, 1990}. Aliquots of DMSO stocks were diluted into Hank's balanced salt solution (HBSS), pH 7.4, containing […] to give 10-μM solute concentration. The solute containing donor solutions were transferred to either the apical or basolateral chamber of the permeability diffusion apparatus. Receiver solutions consisted of HBSS (pH 7.4) containing 25 mM HEPES+0.05% PS80. Sequential samples of transported solute were taken at 20-min intervals using an automated liquid handling platform. The concentration of transported solute during each sampling interval was determined by HPLC/UV/MS. Permeability coefficients were calculated for each sampling interval. The average and standard deviation from the intervals are reported. Mass balance in the system was ascertained by comparing the sum of total transported solute and remaining donor solute with the starting mass of solute and is expressed as a percentage of donor solute at time zero. […] In the event of mass balance less than 70%, the cell monolayers were extracted with ACN and analyzed for the solute of interest. Determinations were conducted in duplicate.

in vitro [4] = conditions: mouse, 20% brain homogenate
Binding in mouse plasma = conditions: for Percentage binding, Mouse plasma, 1 μM / Unbound (%), Mouse Plasma: 1 μM; for Unbound (%), Mouse Plasma: mean ± SD, n = 3 (warfarin n = 2)
CYP2C9 = molecular target: T1, CYP2C9 (Homo sapiens, UniProt P11712); assay: CYP phenotyping in human liver microsomes, sulphaphenazol; format: in vitro ADME; conditions: for CYP Involvement: CYP2C9, NADPH + Sulphaphenazol; for % Disappearance / Measured Conc. / Δ % Disappearance: reversible incubation condition, NADPH + Sulphaphenazol
T1 construct: tissue BD Biosciences; host or cells: pooled human liver microsomes
T1 sequence (P11712 whole entry): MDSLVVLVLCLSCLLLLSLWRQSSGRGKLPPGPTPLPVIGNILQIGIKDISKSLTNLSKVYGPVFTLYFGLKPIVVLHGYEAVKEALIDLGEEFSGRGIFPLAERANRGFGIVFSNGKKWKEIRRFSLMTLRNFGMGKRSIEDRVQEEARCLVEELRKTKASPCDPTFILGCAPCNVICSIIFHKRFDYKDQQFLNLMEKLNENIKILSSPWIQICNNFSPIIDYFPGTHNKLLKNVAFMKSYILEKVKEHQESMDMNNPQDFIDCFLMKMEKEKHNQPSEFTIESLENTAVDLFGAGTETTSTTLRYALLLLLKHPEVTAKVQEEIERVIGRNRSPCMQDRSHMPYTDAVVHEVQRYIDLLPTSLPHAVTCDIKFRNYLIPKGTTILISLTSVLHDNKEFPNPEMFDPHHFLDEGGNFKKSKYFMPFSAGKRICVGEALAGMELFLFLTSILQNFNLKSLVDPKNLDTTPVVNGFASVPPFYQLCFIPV

CYP1A2 = molecular target: T2, CYP1A2 (Homo sapiens, UniProt P05177); assay: CYP phenotyping in human liver microsomes, furafylline; format: in vitro ADME; conditions: for CYP Involvement: CYP1A2, NADPH + Furafylline; for % Disappearance / Measured Conc. / Δ % Disappearance: irreversible incubation condition, NADPH + Furafylline
T2 construct: tissue BD Biosciences; host or cells: pooled human liver microsomes
T2 sequence (P05177 1-516): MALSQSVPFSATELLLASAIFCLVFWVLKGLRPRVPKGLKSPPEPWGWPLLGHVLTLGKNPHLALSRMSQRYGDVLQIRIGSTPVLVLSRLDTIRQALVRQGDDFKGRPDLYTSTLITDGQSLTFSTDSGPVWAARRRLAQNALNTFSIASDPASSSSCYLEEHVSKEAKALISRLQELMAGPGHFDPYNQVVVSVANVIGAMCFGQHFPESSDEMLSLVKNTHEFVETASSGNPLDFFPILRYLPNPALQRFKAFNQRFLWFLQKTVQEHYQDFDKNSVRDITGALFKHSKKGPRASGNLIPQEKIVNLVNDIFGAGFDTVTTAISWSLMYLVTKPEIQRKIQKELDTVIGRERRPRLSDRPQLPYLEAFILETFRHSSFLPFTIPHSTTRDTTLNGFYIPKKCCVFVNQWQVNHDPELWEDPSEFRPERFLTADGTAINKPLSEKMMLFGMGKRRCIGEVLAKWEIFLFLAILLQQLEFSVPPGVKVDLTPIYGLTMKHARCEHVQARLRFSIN

in vitro [5] = conditions: FVB, mouse, 20% brain homogenate, pH 7.4, nonbound free fraction in brain, 1 and 10 μM
CYP2D6 = molecular target: T3, CYP2D6 (Homo sapiens, UniProt P10635); assay: CYP phenotyping in human liver microsomes, quinidine; format: in vitro ADME; conditions: for CYP Involvement: CYP2D6, NADPH + Quinidine; for % Disappearance / Measured Conc. / Δ % Disappearance: reversible incubation condition, NADPH + Quinidine
T3 construct: tissue BD Biosciences; host or cells: pooled human liver microsomes
T3 sequence (P10635 whole entry): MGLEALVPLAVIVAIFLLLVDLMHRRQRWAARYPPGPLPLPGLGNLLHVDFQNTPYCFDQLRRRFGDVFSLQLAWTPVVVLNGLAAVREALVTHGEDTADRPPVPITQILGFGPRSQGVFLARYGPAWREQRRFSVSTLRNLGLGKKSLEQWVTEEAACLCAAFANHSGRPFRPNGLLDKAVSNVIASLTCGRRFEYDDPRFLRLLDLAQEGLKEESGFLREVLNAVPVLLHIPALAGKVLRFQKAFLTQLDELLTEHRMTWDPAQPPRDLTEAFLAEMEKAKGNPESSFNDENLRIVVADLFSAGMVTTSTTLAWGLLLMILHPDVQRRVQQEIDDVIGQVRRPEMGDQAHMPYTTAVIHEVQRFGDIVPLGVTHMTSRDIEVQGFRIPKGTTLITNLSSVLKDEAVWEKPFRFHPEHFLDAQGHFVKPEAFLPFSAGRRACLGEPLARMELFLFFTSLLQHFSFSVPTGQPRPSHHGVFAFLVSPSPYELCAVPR

CYP3A4 = molecular target: T4, CYP3A4 (Homo sapiens, UniProt P08684); assay: CYP phenotyping in human liver microsomes, ketoconazole; format: in vitro ADME; conditions: for CYP Involvement: CYP3A4, NADPH + Ketoconazole; for % Disappearance / Measured Conc. / Δ % Disappearance: reversible incubation condition, NADPH + Ketoconazole
T4 construct: tissue BD Biosciences; host or cells: pooled human liver microsomes
T4 sequence (P08684 whole entry): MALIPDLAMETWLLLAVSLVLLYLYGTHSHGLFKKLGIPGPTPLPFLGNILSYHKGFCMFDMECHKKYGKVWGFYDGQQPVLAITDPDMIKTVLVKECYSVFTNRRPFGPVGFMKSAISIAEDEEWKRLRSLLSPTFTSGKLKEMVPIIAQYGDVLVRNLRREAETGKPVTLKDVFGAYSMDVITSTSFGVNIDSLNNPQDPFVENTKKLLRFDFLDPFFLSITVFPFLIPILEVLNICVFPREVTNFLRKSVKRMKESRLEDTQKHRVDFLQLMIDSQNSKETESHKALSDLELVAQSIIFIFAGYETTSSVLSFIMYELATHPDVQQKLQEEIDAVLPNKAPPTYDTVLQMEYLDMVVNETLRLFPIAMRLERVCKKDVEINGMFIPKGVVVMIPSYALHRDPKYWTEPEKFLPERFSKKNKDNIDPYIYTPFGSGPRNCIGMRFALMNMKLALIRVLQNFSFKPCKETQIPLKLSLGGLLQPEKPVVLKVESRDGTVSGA

ScN2a-c13 cells = assay: cells; format: cell-based; conditions: Mus musculus; N=3; read-out: EC50 by calcein for cell viability
[6] = cell culture media, plasma or biological fluid
[7] = pH 2 (HCl) buffer, pH 2, simulated gastric fluid
[8] = pH 7.4 (phosphate) buffer, pH 7.4, aqueous buffer
[9] = PO 40 mg/kg, brain, female FVB mice
[10] = female, FVB, mouse, brain and plasma, po, 10 mg/kg
[11] = female, FVB, mouse, brain, po, 40 mg/kg
[12] = female, FVB, mouse, brain/plasma, po, 40 mg/kg
[13] = female, FVB, mouse, plasma, iv, 1 mg/kg
[14] = female, FVB, mouse, plasma, iv, 1 mg/kg, t1/2, IV 1 mg/kg, female FVB mice
[15] = female, FVB, mouse, plasma, po, 10 mg/kg
[16] = female, FVB, mouse, plasma, po, 40 mg/kg
[17] = female, FVB, mouse, plasma, po, 40 mg/kg, t1/2, PO 40 mg/kg, female FVB mice
[18] = IV 1 mg/kg, plasma, female FVB mice

## COc1ccc(-c2csc(Nc3ccc4ccccc4n3)n2)cc1OC [IND47, [4-(3,4-Dimethoxy-phenyl)-thiazol-2-yl]-quinolin-2-yl-amine]
[1]
  solubility in FaSSIF (in words): lower solubility
  solubility at pH 2.0 (in words): lower solubility
physchem; FaSSIF
  solubility: 5 µM (≈ 1.82 µg/mL)
physchem; [6]
  solubility: 52 µM (≈ 18.9 µg/mL)
physchem; [7]
  solubility: < 1 µM
physchem; [8]
  solubility: < 1 µM

## Cc1cccc(Nc2nc(-c3ccc(-c4ccccc4)cc3)cs2)n1 [IND24, (4-Biphenyl-4-yl-thiazol-2-yl)-(6-methyl-pyridin-2-yl)-amine]
[2]; [9]
  AUClast: 9998 ± 417 ng·h/g
[2]; [10]
  Kp: 2.6
[2]; [11]
  Cmax: 840 ± 252 ng/g
  Tmax: 4 h
[2]; [12]
  Kp: 2.61
[2]; [13]
  AUC(0-t): 953 ± 374 ng·h/mL
  Cmax: 856 ± 908 ng/mL
  Tmax: 0.083 h
[2]; female, FVB, mouse, plasma, iv, 1 mg/kg, Half-life, 1 mg/kg IV, female FVB mice
  half-life: 2 h
[2]; [14]
  half-life: 2.15 h
[2]; [15]
  bioavailability: 40%
[2]; [16]
  AUC(0-t): 3830 ± 450 ng·h/mL
  Cmax: 569 ± 38.1 ng/mL
  Tmax: 2 h
  bioavailability: 40.2%
[2]; [17]
  half-life: 4.65 h
[2]; brain
  Brain exposure (AUClast) ranking: highest AUC values in brain
[3]
  P-gp substrate status, absorptive vs secretory permeability: not substrates
In vitro [4]
  fraction unbound: 0.07 to 0.08
Binding in dog plasma
  Percentage binding, Dog plasma, 1 μM: 95.1 ± 1.38%
  Percentage binding, Dog plasma, 10 μM: 95.0 ± 0.32%
Binding in mouse plasma
  Percentage binding, Mouse plasma, 1 μM: 93.4 ± 1.55%
  Unbound (%), Mouse Plasma: 6.63 ± 1.55%
  Percentage binding, Mouse plasma, 10 μM: 95.8 ± 0.14%
CYP2C9
  CYP Involvement: Unlikely (unlikely for values <5)
  % Disappearance: 14%
  Measured Conc.: 0.566 µM
  Δ % Disappearance: 0 (−14) %
CYP1A2
  CYP Involvement: Unlikely (unlikely for values <5)
  % Disappearance: 0 (−23) %
  Measured Conc.: 0.766 µM
  Δ % Disappearance: 0%
In vitro [5]
  fraction unbound at 4 h: 0.06 to 0.09
CYP2D6
  CYP Involvement: Unlikely (unlikely for values <5)
  % Disappearance: 15%
  Measured Conc.: 0.555 µM
  Δ % Disappearance: 0 (−15) %
CYP3A4
  CYP Involvement: Unlikely (unlikely for values <5)
  % Disappearance: 15%
  Measured Conc.: 0.557 µM
  Δ % Disappearance: 0 (−15) %
ScN2a-c13 cells
  EC50: > 10 µM

## Cc1ccc(Nc2nc(-c3cc(-c4ccccc4)no3)cs2)nc1 [IND33, (5-Methyl-pyridin-2-yl)-[4-(3-phenyl-isoxazol-5-yl)-thiazol-2-yl]-amine]
[1]
  solubility in FaSSIF (in words): higher solubility
  solubility at pH 2.0 (in words): lower
physchem; FaSSIF
  solubility: 70 µM (≈ 23.4 µg/mL)
physchem; [6]
  solubility: 225 µM (≈ 75.2 µg/mL)
physchem; [7]
  solubility: 1 µM (≈ 0.334 µg/mL)
physchem; [8]
  solubility: < 1 µM

## Cc1ccnc(Nc2nc(-c3ccncc3)cs2)c1 [IND52, (4-Methyl-pyridin-2-yl)-(4-pyridin-4-yl-thiazol-2-yl)-amine]
physchem; FaSSIF
  solubility: 2 µM (≈ 0.537 µg/mL)
physchem; [6]
  solubility: 76 µM (≈ 20.4 µg/mL)
physchem; [7]
  solubility: 215 µM (≈ 57.7 µg/mL)
physchem; [8]
  solubility: 1 µM (≈ 0.268 µg/mL)
ScN2a-c13 cells
  EC50: > 10 µM

## Cc1ccnc(Nc2nc(-c3ccc(-c4ccccn4)s3)cs2)c1 [IND81, (4-Methyl-pyridin-2-yl)-[4-(5-pyridin-2-yl-thiophen-2-yl)-thiazol-2-yl]-amine]
[2]; [9]
  AUClast: 1592 ± 794 ng·h/g
[2]; [10]
  Kp: 5.5
[2]; [11]
  Cmax: 568 ± 186 ng/g
  Tmax: 0.5 h
[2]; [12]
  Kp: 5.53
[2]; [13]
  AUC(0-t): 106 ± 12.4 ng·h/mL
  Cmax: 183 ± 96.6 ng/mL
  Tmax: 0.083 h
[2]; [14]
  half-life: 1.17 h
[2]; [15]
  bioavailability: 25 to 27%
[2]; [16]
  AUC(0-t): 288 ± 136 ng·h/mL
  Cmax: 152 ± 10.6 ng/mL
  Tmax: 0.5 h
  bioavailability: 27.2%
[2]; [17]
  half-life: 0.97 h
[2]; brain
  Brain exposure (AUClast) ranking: highest AUC values in brain
[3]
  P-gp substrate status, absorptive vs secretory permeability: not substrates
In vitro [4]
  fraction unbound: 0.09
Binding in dog plasma
  Percentage binding, Dog plasma, 1 μM: 94.4 ± 1.88%
  Percentage binding, Dog plasma, 10 μM: 94.7 ± 1.03%
Binding in mouse plasma
  Percentage binding, Mouse plasma, 1 μM: 93.5 ± 1.10%
  Unbound (%), Mouse Plasma: 6.48 ± 1.10%
  Percentage binding, Mouse plasma, 10 μM: 96.0 ± 0.04%
[1]
  solubility in FaSSIF (in words): lower solubility
  solubility at pH 2.0 (in words): higher solubility
CYP2C9
  CYP Involvement: Unlikely (unlikely for values <5)
  % Disappearance: 64%
  Measured Conc.: 0.238 µM
  Δ % Disappearance: 1.8%
CYP1A2
  CYP Involvement: Unlikely (unlikely for values <5)
  % Disappearance: 41%
  Measured Conc.: 0.534 µM
  Δ % Disappearance: 43%
In vitro [5]
  fraction unbound at 4 h: 0.06 to 0.09
physchem; FaSSIF
  solubility: 3 µM (≈ 1.05 µg/mL)
physchem; [6]
  solubility: 207 µM (≈ 72.5 µg/mL)
physchem; [7]
  solubility: 78 µM (≈ 27.3 µg/mL)
physchem; [8]
  solubility: < 1 µM
CYP2D6
  CYP Involvement: Likely (likely for values >10)
  % Disappearance: 55%
  Measured Conc.: 0.300 µM
  Δ % Disappearance: 11%
CYP3A4
  CYP Involvement: Likely (likely for values >10)
  % Disappearance: 51%
  Measured Conc.: 0.324 µM
  Δ % Disappearance: 15%
ScN2a-c13 cells
  EC50: > 10 µM

## C(=N\Nc1ccc(-c2cnco2)cc1)/c1ccncc1 [IND54304, reference compound]
[2]; [18]
  AUClast: 219 ± 33.0 ng·h/mL
  Cmax: 466 ± 37.4 ng/mL
  Tmax: 0.083 h
  t1/2: 0.21 h
[2]; PO 40 mg/kg vs IV 1 mg/kg, plasma, female FVB mice
  % F: 24.8%
[2]; [9]
  AUClast: 282 ± 27.2 ng·h/g
[2]; [11]
  Cmax: 123 ± 42.7 ng/g
  Tmax: 2 h
[2]; [12]
  Kp: 0.52
[2]; [16]
  AUC(0-t): 544 ± 16.8 ng·h/mL
  Cmax: 220 ± 99.4 ng/mL
  Tmax: 0.5 h
[2]; [17]
  half-life: 1 h

## c1ccc2cc(Nc3nc(-c4ccncc4)cs3)ncc2c1 [IND85, Isoquinolin-3-yl-(4-pyridin-4-yl-thiazol-2-yl)-amine]
[2]; single oral dose 40 mg/kg
  Brain Cmax/EC50 ratio, 40 mg/kg: better Cmax:EC50 ratio at either dose
[1]
  solubility in FaSSIF (in words): lower solubility
  solubility at pH 2.0 (in words): higher solubility
physchem; FaSSIF
  solubility: 3 µM (≈ 0.913 µg/mL)
physchem; [6]
  solubility: 116 µM (≈ 35.3 µg/mL)
physchem; [7]
  solubility: 196 µM (≈ 59.7 µg/mL)
physchem; [8]
  solubility: < 1 µM
